Results from patent publication US10117430B2, “Malononitrile compounds for controlling animal pests” (BASF SE, priority 2012, dated 2018).

Experiments:
Assay type in all cases: in vivo
[1] = tested on: Green Soldier Stink Bug (Nezara viridula); experiment: B.15 Green soldier stink bug test on sprayed soybean pods; details: 120 h, in comparison with untreated controls, after 5 days
Protocol: B.15 Green Soldier Stink Bug (Nezara viridula)
The active compound is dissolved at the desired concentration in a mixture of 1:1 (vol:vol) distilled water:aceteone. Surfactant (Kinetic HV) is added at a rate of 0.01% (vol/vol). The test solution is prepared at the day of use. Soybean pods were placed in microwavable plastic cups lined with moist filter paper and inoculated with ten 3rd instar N. viridula. Using a hand atomizer, an approximately 2 ml solution is sprayed into each cup. Treated cups were kept at about 28-29° C. and relative humidity of about 50-60%. Percent mortality was recorded after 5 days.

[2] = tested on: Orchid Thrips (Dichromothrips corbetti); experiment: B.4 Orchid thrips floral-immersion test; details: 96 h, in comparison with untreated controls, after 4 days
Protocol: B.4 Orchid Thrips (Dichromothrips Corbetti)
Dichromothrips corbetti adults used for bioassay are obtained from a colony maintained continuously under laboratory conditions. For testing purposes, the test compound is diluted to a concentration of 300 ppm (wt compound: vol diluent) in a 1:1 mixture of acetone:water (vol:vol), plus 0.01% vol/vol Kinetic® surfactant. Thrips potency of each compound is evaluated by using a floral-immersion technique. Plastic petri dishes are used as test arenas. All petals of individual, intact orchid flowers are dipped into treatment solution and allowed to dry. Treated flowers are placed into individual petri dishes along with 10-15 adult thrips. The petri dishes are then covered with lids. All test arenas are held under continuous light and a temperature of about 28° C. for duration of the assay. After 4 days, the numbers of live thrips are counted on each flower, and along inner walls of each petri dish. The level of thrips mortality is extrapolated from pre-treatment thrips numbers.

[3] = tested on: Green Peach Aphid (Myzus persicae); experiment: B.3 Green peach aphid systemic test, artificial diet under membrane; details: 72 h, concentration of the test solution 2500 mg/L, 3 days
Source text: B.3 Green Peach Aphid (Myzus persicae)
For evaluating control of green peach aphid (Myzus persicae) through systemic means the test unit consisted of 96-well-microtiter plates containing liquid artificial diet under an artificial membrane. The compounds were formulated using a solution containing 75% v/v water and 25% v/v DMSO. Different concentrations of formulated compounds were pipetted into the aphid diet, using a custom built pipetter, at two replications. After application, 5-8 adult aphids were placed on the artificial membrane inside the microtiter plate wells. The aphids were then allowed to suck on the treated aphid diet and incubated at about 23±1° C. and about 50±5% relative humidity for 3 days. Aphid mortality and fecundity was then visually assessed.

[4] = tested on: Yellow Fever Mosquito (Aedes aegypti); experiment: whole plant or invertebrate; details: 48 h, in comparison with untreated controls, larval mortality after 2 days
Protocol: B.12 Yellow Fever Mosquito (Aedes aegypti)
For evaluating control of yellow fever mosquito (Aedes aegypti) the test unit consisted of 96-well-microtiter plates containing 200 μl of tap water per well and 5-15 freshly hatched A. aegypti larvae. The compounds or mixtures were formulated using a solution containing 75% water and 25% DMSO. Different concentrations of formulated compounds or mixtures were sprayed onto the insect diet at 2.5 μl, using a custom built micro atomizer, at two replications. After application, microtiter plates were incubated at 28±1° C., 80±5% relative humidity for 2 days. Larval mortality was then visually assessed.

[5] = tested on: Vetch Aphid (Megoura viciae); experiment: B.7 Vetch aphid test on broad bean leaf disks; details: foliar, 120 h, in comparison with untreated controls, 5 days
Protocol: B.7 Vetch Aphid (Megoura viciae)
For evaluating control of vetch aphid (Megoura viciae) through contact or systemic means the test unit consisted of 24-well-microtiter plates containing broad bean leaf disks. The compounds were formulated using a solution containing 75% v/v water and 25% v/v DMSO. Different concentrations of formulated compounds were sprayed onto the leaf disks at 2.5 μl, using a custom built micro atomizer, at two replications. After application, the leaf disks were air-dried and 5-8 adult aphids placed on the leaf disks inside the microtiter plate wells. The aphids were then allowed to suck on the treated leaf disks and incubated at about 23±1° C. and about 50±5% relative humidity for 5 days. Aphid mortality and fecundity was then visually assessed.

[6] = tested on: Boll Weevil (Anthonomus grandis); experiment: B.9 Boll weevil microtiter diet test, egg and larval mortality; details: 120 h, in comparison with untreated controls, egg and larval mortality after 5 days
Protocol: B.9 Boll Weevil (Anthonomus grandis)
(§1) For evaluating control of boll weevil (Anthonomus grandis) the test unit consisted of 24-well-microtiter plates containing an insect diet and 20-30 A. grandis eggs. The compounds were formulated using a solution containing 75% v/v water and 25% v/v DMSO. Different concentrations of formulated compounds were sprayed onto the insect diet at 20 μl, using a custom built micro atomizer, at two replications. After application, microtiter plates were incubated at about 23±1° C. and about 50±5% relative humidity for 5 days. Egg and larval mortality was then visually assessed.

[7] = tested on: Mediterranean Fruitfly (Ceratitis capitata); experiment: B.2 Mediterranean fruitfly microtiter diet test, egg and larval mortality; details: 120 h, in comparison with untreated controls, egg and larval mortality after 5 days
Protocol: B.2 Mediterranean Fruitfly (Ceratitis capitata)
as §1, with “Mediterranean fruitfly (Ceratitis capitata)” for “boll weevil (Anthonomus grandis)”, “microtiter” for “24-well-microtiter”, “50-80 C. capitata” for “20-30 A. grandis”, “5” for “20”, “28±1°” for “23±1°”, “80±5%” for “50±5%”

[8] = tested on: Cowpea Aphid (Aphis craccivora); experiment: B.1 Cowpea aphid spray test on potted cowpea plants; details: in comparison with untreated controls, population reduction assessed after 24, 72 and 120 hours
Protocol: B.1 Cowpea Aphid (Aphis craccivora)
The active compounds were formulated in 50:50 (v/v) acetone:water. The test solution was prepared at the day of use. Potted cowpea plants colonized with approximately 100-150 aphids of various stages were sprayed after the pest population has been recorded. Population reduction was assessed after 24, 72, and 120 hours.

[9] = tested on: Rice brown plant hopper (Nilaparvata lugens); experiment: B.11 Rice brown plant hopper test on sprayed rice seedlings; details: in comparison with untreated controls, after 72 hours
Protocol: B.11 Rice brown plant hopper (Nilaparvata lugens)
Rice seedlings were cleaned and washed 24 hours before spraying. The active compounds were formulated in 50:50 acetone:water (vol:vol) and 0.1% vol/vol surfactant (EL 620) was added. Potted rice seedlings were sprayed with 5 ml test solution, air dried, placed in cages and inoculated with 10 adults. Treated rice plants were kept at about 28-29° C. and relative humidity of about 50-60%. Percent mortality was recorded after 72 hours.

[10] = tested on: Southern Armyworm (Spodoptera eridania); experiment: B.6 Southern armyworm test on sprayed lima bean plants; details: 96 h, in comparison with untreated controls, 4 days after treatment
Protocol: B.6 Southern Armyworm (Spodoptera eridania)
The active compounds were formulated in cyclohexanone as a 10,000 ppm solution supplied in 1.3 ml ABgene® tubes. These tubes were inserted into an automated electrostatic sprayer equipped with an atomizing nozzle and they served as stock solutions for which lower dilutions were made in 50% acetone:50% water (v/v). A nonionic surfactant (Kinetic®) was included in the solution at a volume of 0.01% (v/v). Lima bean plants (variety Sieva) were grown 2 plants to a pot and selected for treatment at the 1st true leaf stage. Test solutions were sprayed onto the foliage by an automated electrostatic plant sprayer equipped with an atomizing spray nozzle. The plants were dried in the sprayer fume hood and then removed from the sprayer. Each pot was placed into perforated plastic bags with a zip closure. Ten to 11 armyworm larvae were placed into the bag and the bags zipped closed. Test plants were maintained in a growth room at 25° C. and 20-40% relative humidity for 4 days, avoiding direct exposure to fluorescent light (24 hour photoperiod) to prevent trapping of heat inside the bags. Mortality and reduced feeding were assessed 4 days after treatment, compared to untreated control plants.

[11] = tested on: Silverleaf Whitefly (Bemisia argentifolii); experiment: B.5 Silverleaf whitefly test on sprayed cotton plants; details: 72 h, in comparison with untreated controls, 3 days after treatment
Protocol: B.5 Silverleaf Whitefly (Bemisia argentifolii)
The active compounds were formulated in cyclohexanone as a 10,000 ppm solution supplied in 1.3 ml ABgene® tubes. These tubes were inserted into an automated electrostatic sprayer equipped with an atomizing nozzle and they served as stock solutions for which lower dilutions were made in 50% acetone:50% water (v/v). A nonionic surfactant (Kinetic®) was included in the solution at a volume of 0.01% (v/v). Cotton plants at the cotyledon stage (one plant per pot) were sprayed by an automated electrostatic plant sprayer equipped with an atomizing spray nozzle. The plants were dried in the sprayer fume hood and then removed from the sprayer. Each pot was placed into a plastic cup and 10 to 12 whitefly adults (approximately 3-5 days old) were introduced. The insects were collected using an aspirator and 0.6 cm, nontoxic Tygon® tubing (R-3603) connected to a barrier pipette tip. The tip, containing the collected insects, was then gently inserted into the soil containing the treated plant, allowing insects to crawl out of the tip to reach the foliage for feeding. Cups were covered with a reusable screened lid (150-micron mesh polyester screen PeCap from Tetko, Inc.). Test plants were maintained in a growth room at 25° C. and 20-40% relative humidity for 3 days, avoiding direct exposure to fluorescent light (24 hour photoperiod) to prevent trapping of heat inside the cup. Mortality was assessed 3 days after treatment, compared to untreated control plants.

[12] = tested on: Red Spider Mite (Tetranychus kanzawai); experiment: B.10 Red spider mite test on sprayed cowpea beans; details: in comparison with untreated controls, 72 hours after treatment
Protocol: B.10 Red Spider Mite (Tetranychus kanzawai)
The active compound is dissolved at the desired concentration in a mixture of 1:1 (vol:vol) distilled water:acetone. Add surfactant (Alkamuls® EL 620) at the rate of 0.1% (vol/vol). The test solution is prepared at the day of use. Potted cowpea beans of 7-10 days of age were cleaned with tap water and sprayed with 5 ml of the test solution using air driven hand atomizer. The treated plants were allowed to air dry and afterwards inculated with 20 or more mites by clipping a cassava leaf section with known mite population. Treated plants were placed inside a holding room at about 25-27° C. and about 50-60% relative humidity. Percent mortality was assessed 72 hours after treatment.

CC(c1ccc(C(F)(F)F)cn1)C(C#N)(C#N)c1cc(F)c(F)c(F)c1 (stereo not drawn) [II-61]
≥ 75%: mortality at 500 ppm [1] | mortality at 500 ppm [2] | mortality at 2500 µg/mL [3] | mortality at 2500 ppm [4] | mortality at 2500 ppm [5] | mortality at 2500 ppm [6] | mortality at 2500 ppm [7] | mortality at 500 ppm [8] | mortality at 300 ppm [9]

N#CC(C#N)(Cc1ccc(C(F)(F)F)nc1)c1cccc(F)c1 [II-19]
≥ 75%: mortality at 500 ppm [1] | mortality at 500 ppm [2] | mortality at 300 ppm [10] | mortality at 2500 ppm [4] | mortality at 2500 ppm [5] | mortality at 2500 ppm [6] | mortality at 500 ppm [11] | mortality at 2500 ppm [7] | mortality at 500 ppm [8]

N#CC(C#N)(Cc1ccc(F)nc1F)c1ccc(F)cc1 [II-51]
≥ 75%: mortality at 500 ppm [12] | mortality at 500 ppm [2] | mortality at 2500 ppm [4]

N#CC(C#N)(Cc1ncc(C(F)(F)F)cn1)c1ccc(F)cc1 [II-17]
≥ 75%: mortality at 500 ppm [2] | mortality at 500 ppm [10] | mortality at 2500 ppm [4] | mortality at 2500 ppm [5] | mortality at 2500 ppm [6] | mortality at 500 ppm [11] | mortality at 500 ppm [8]

CC(c1ccc(F)cn1)C(C#N)(C#N)c1ccc(F)cc1 (stereo not drawn) [II-9]
≥ 75%: mortality at 500 ppm [12] | mortality at 2500 µg/mL [3] | mortality at 2500 ppm [4] | mortality at 2500 ppm [6] | mortality at 500 ppm [11] | mortality at 300 ppm [9]

N#CC(C#N)(Cc1ccc(C(F)(F)F)nn1)c1ccc(F)cc1 [II-14]
≥ 75%: mortality at 500 ppm [10] | mortality at 2500 µg/mL [3] | mortality at 2500 ppm [6] | mortality at 500 ppm [8]

C#Cc1ccc(C(C#N)(C#N)Cc2ccc(C(F)(F)F)cn2)cc1 [II-33]
≥ 75%: mortality at 500 ppm [12] | mortality at 500 ppm [2]

N#CC(C#N)(Cc1ccc(C(F)(F)F)cn1)c1cc(F)c(F)c(F)c1 [II-48]
≥ 75%: mortality at 500 ppm [1] | mortality at 500 ppm [2] | mortality at 2500 µg/mL [3] | mortality at 2500 ppm [4] | mortality at 2500 ppm [5] | mortality at 2500 ppm [6] | mortality at 2500 ppm [7] | mortality at 300 ppm [9]

N#CC(C#N)(Cc1cnc(C(F)(F)F)cn1)c1cccc(F)c1 [II-28]
≥ 75%: mortality at 500 ppm [12] | mortality at 500 ppm [2] | mortality at 2500 ppm [4] | mortality at 2500 ppm [5] | mortality at 2500 ppm [6] | mortality at 500 ppm [11] | mortality at 500 ppm [8]

N#CC(C#N)(Cc1ccc(C(F)(F)F)nc1)c1cc(F)c(F)c(F)c1 [II-43]
≥ 75%: mortality at 500 ppm [12] | mortality at 500 ppm [2] | mortality at 2500 µg/mL [3] | mortality at 2500 ppm [4] | mortality at 2500 ppm [5] | mortality at 2500 ppm [6] | mortality at 2500 ppm [7] | mortality at 500 ppm [8] | mortality at 300 ppm [9]

N#CC(C#N)(Cc1cnc(C(F)(F)F)nc1)c1ccccc1 [II-20]
≥ 75%: mortality at 500 ppm [12] | mortality at 500 ppm [1] | mortality at 500 ppm [2] | mortality at 2500 µg/mL [3] | mortality at 2500 ppm [4] | mortality at 2500 ppm [5] | mortality at 2500 ppm [6] | mortality at 500 ppm [11] | mortality at 2500 ppm [7] | mortality at 500 ppm [8] | mortality at 300 ppm [9]

N#CC(C#N)(Cc1ccc(C(F)(F)F)cn1)c1cc(F)cc(F)c1 [II-38]
≥ 75%: mortality at 500 ppm [2] | mortality at 300 ppm [10] | mortality at 2500 µg/mL [3] | mortality at 2500 ppm [4] | mortality at 2500 ppm [5] | mortality at 2500 ppm [6] | mortality at 500 ppm [11] | mortality at 500 ppm [8] | mortality at 300 ppm [9]
